From the supplement of paper PMC10307832

Legend:
Assay in all cases: relative viability (nuclei count vs DMSO), 5 days (fraction); higher = more cells survive
[1] = compound: CC(C)=CC[C@@H](O)C1=CC(=O)c2c(O)ccc(O)c2C1=O [Shikonin] + CS(=O)(=O)CCNCc1ccc(-c2ccc3ncnc(Nc4ccc(OCc5cccc(F)c5)c(Cl)c4)c3c2)o1 [Lapatinib] (partner 2 µM)
Method in brief: (§1)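 Lung cancer cell lines were seeded in 1536-well plates and dosed by pin tool the next day, with either a single drug or a fixed anchor-drug dose combined with five library-drug doses (not always all listed) spaced in √10 steps. Five days later, one step fixed the cells and stained their nuclei (final 0.05% Triton X-100, 1% formaldehyde, 1 ug/ml Hoechst), and nuclei were counted on 4× images. Relative viability is the nuclei count in treated wells divided by the count in vehicle wells, and each value is the median of duplicate plates.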

[2] = compound: CC(C)N(CCCNC(=O)Nc1ccc(C(C)(C)C)cc1)C[C@H]1O[C@@H](n2ccc3c(N)ncnc32)[C@H](O)[C@@H]1O + CC(=O)c1c(C)c2cnc(Nc3ccc(N4CCNCC4)cn3)nc2n(C2CCCC2)c1=O [Palbociclib] (partner 0.5 µM)
Method in brief: as §1

[3] = compound: CC(C)N(CCCNC(=O)Nc1ccc(C(C)(C)C)cc1)C[C@H]1O[C@@H](n2ccc3c(N)ncnc32)[C@H](O)[C@@H]1O + CCNC(=O)c1noc(-c2cc(C(C)C)c(O)cc2O)c1-c1ccc(CN2CCOCC2)cc1 [Luminespib] (partner 0.01 µM)
Method in brief: as §1

[4] = compound: CC(C)N(CCCNC(=O)Nc1ccc(C(C)(C)C)cc1)C[C@H]1O[C@@H](n2ccc3c(N)ncnc32)[C@H](O)[C@@H]1O + N=C(N)NC(=N)NCCc1ccccc1 [Phenformin] (partner 250 µM)
Method in brief: as §1

Cell Line	relative viability ([1]; first compound 0.01 µM)	relative viability ([1]; first compound 0.1 µM)	relative viability ([1]; first compound 0.3162 µM)	relative viability ([1]; first compound 1 µM)	relative viability ([2]; first compound 0.08 µM)	relative viability ([2]; first compound 0.253 µM)	relative viability ([2]; first compound 0.8 µM)	relative viability ([2]; first compound 2.53 µM)	relative viability ([2]; first compound 8 µM)	relative viability ([3]; first compound 0.08 µM)	relative viability ([3]; first compound 0.253 µM)	relative viability ([3]; first compound 0.8 µM)	relative viability ([3]; first compound 2.53 µM)	relative viability ([3]; first compound 8 µM)	relative viability ([4]; first compound 0.08 µM)	relative viability ([4]; first compound 0.253 µM)	relative viability ([4]; first compound 0.8 µM)	relative viability ([4]; first compound 2.53 µM)	relative viability ([4]; first compound 8 µM)
NCI-H322M	0.582	0.595	0.585	0.566	0.481	0.488	0.494	0.489	0.532	0.92	0.759	0.889	0.76	0.913	0.795	0.711	0.75	0.749	0.762
NCI-H1975	0.871	1.17	0.859	0.896	0.557	0.486	0.205	0.499	0.497	0.214	0.154	–	0.213	0.192	0.393	0.387	0.202	0.393	0.338
NCI-H1944	0.89	0.894	0.789	0.933	0.322	0.302	0.348	0.329	0.353	0.716	0.683	0.819	0.709	0.766	0.223	0.195	0.199	0.188	0.198
LU99A	1.1	1.32	0.881	0.891	0.399	0.387	0.436	0.427	0.405	0.234	0.277	0.253	0.317	0.222	0.793	0.679	0.979	0.85	0.787
NCI-H1993	–	0.806	0.711	0.921	0.616	–	0.57	0.609	0.65	0.707	–	–	0.927	0.84	0.464	–	–	0.539	0.498
NCI-H2405	1.13	1.28	1.11	1.16	0.515	0.539	0.532	0.546	0.507	0.691	0.61	0.722	0.78	0.74	0.393	0.324	0.419	0.409	0.345
NCI-H2023	0.806	1.14	1.02	0.867	0.458	0.312	0.634	0.338	0.329	0.694	0.771	0.807	0.858	0.621	0.41	0.427	0.445	0.405	0.353
HCC-15	0.945	0.996	0.918	0.919	0.759	0.709	0.802	0.712	0.724	0.327	0.378	0.435	0.33	0.31	0.466	0.483	0.431	0.423	0.407
HCC-44	1.07	1.07	1.05	1.09	0.968	1.05	0.845	0.931	0.91	0.972	1.06	1.1	1.15	1.03	0.142	0.155	0.232	0.219	0.125
HCC-78	0.778	1.07	0.705	1.06	0.391	0.484	0.502	0.458	0.476	–	–	–	–	–	0.804	0.611	0.682	0.641	0.717
NCI-H1299	1.01	1.09	0.986	0.936	–	–	–	–	–	–	–	–	–	–	–	–	–	–	–
LCLC-103H	–	–	–	–	0.488	0.47	0.438	0.482	0.459	0.765	0.944	0.883	0.926	0.93	0.326	0.342	0.304	0.261	0.304
ChaGo-K-1	–	–	–	–	0.887	0.96	0.959	0.928	0.95	0.583	0.552	0.47	0.683	0.643	0.494	0.47	0.427	0.458	0.46
NCI-H596	1.19	1.02	1.15	0.98	–	–	–	–	–	1.06	–	0.923	0.955	1.12	0.819	–	0.626	0.781	0.713
SW 900	–	–	–	–	0.564	0.521	–	0.543	0.473	0.166	0.165	–	0.185	0.19	0.719	0.634	–	0.541	0.486
NCI-H1563	0.87	1.08	0.923	0.779	–	–	–	–	–	0.474	0.542	0.592	0.533	0.515	0.67	0.627	0.626	0.666	0.697
A549	1.08	1.09	1.03	1.1	–	–	–	–	–	–	–	–	–	–	0.183	0.142	0.164	0.152	0.105
NCI-H2342	–	–	–	–	0.556	0.533	0.481	0.551	0.549	0.856	0.576	0.722	0.675	0.724	0.574	0.553	0.499	0.532	0.493
NCI-H441	–	–	–	–	0.203	0.186	–	0.237	0.216	0.39	0.334	–	0.278	0.368	0.813	0.923	–	0.776	0.824
NCI-H1623	–	–	–	–	–	–	–	–	–	0.495	0.472	0.394	0.589	0.547	0.547	0.666	0.597	0.607	0.565
NCI-H522	–	–	–	–	0.85	1.05	1.09	1.09	1.4	0.949	1.2	1.05	1.1	1.22	0.606	0.673	0.677	0.664	0.56
IA-LM	1.11	–	0.81	0.679	–	–	–	–	–	–	–	–	–	–	–	–	–	–	–
EBC-1	0.19	0.191	0.213	0.217	–	–	–	–	–	–	–	–	–	–	–	–	–	–	–
